Measured values reported in ChEMBL document CHEMBL5528046, “Discovery of Novel PROTAC Degraders of p300/CBP as Potential Therapeutics for Hepatocellular Carcinoma” (J Med Chem, 2024).
Active and inactive are the calls of the source. No cut-off for these calls is given here.

Experiments:
[1] = target: T1, Protein cereblon/Histone acetyltransferase p300 (Homo sapiens, UniProt Q09472+Q96SW2); experiment: PROTAC activity at CRBN/p300 in human SK-HEP1 cells assessed as induction of p300 protein degradation at 0.1 uM incubated for 24 hrs relative to control; assay type: cell-based
Target sequence in this assay (Q09472 2-2414 limits assumed): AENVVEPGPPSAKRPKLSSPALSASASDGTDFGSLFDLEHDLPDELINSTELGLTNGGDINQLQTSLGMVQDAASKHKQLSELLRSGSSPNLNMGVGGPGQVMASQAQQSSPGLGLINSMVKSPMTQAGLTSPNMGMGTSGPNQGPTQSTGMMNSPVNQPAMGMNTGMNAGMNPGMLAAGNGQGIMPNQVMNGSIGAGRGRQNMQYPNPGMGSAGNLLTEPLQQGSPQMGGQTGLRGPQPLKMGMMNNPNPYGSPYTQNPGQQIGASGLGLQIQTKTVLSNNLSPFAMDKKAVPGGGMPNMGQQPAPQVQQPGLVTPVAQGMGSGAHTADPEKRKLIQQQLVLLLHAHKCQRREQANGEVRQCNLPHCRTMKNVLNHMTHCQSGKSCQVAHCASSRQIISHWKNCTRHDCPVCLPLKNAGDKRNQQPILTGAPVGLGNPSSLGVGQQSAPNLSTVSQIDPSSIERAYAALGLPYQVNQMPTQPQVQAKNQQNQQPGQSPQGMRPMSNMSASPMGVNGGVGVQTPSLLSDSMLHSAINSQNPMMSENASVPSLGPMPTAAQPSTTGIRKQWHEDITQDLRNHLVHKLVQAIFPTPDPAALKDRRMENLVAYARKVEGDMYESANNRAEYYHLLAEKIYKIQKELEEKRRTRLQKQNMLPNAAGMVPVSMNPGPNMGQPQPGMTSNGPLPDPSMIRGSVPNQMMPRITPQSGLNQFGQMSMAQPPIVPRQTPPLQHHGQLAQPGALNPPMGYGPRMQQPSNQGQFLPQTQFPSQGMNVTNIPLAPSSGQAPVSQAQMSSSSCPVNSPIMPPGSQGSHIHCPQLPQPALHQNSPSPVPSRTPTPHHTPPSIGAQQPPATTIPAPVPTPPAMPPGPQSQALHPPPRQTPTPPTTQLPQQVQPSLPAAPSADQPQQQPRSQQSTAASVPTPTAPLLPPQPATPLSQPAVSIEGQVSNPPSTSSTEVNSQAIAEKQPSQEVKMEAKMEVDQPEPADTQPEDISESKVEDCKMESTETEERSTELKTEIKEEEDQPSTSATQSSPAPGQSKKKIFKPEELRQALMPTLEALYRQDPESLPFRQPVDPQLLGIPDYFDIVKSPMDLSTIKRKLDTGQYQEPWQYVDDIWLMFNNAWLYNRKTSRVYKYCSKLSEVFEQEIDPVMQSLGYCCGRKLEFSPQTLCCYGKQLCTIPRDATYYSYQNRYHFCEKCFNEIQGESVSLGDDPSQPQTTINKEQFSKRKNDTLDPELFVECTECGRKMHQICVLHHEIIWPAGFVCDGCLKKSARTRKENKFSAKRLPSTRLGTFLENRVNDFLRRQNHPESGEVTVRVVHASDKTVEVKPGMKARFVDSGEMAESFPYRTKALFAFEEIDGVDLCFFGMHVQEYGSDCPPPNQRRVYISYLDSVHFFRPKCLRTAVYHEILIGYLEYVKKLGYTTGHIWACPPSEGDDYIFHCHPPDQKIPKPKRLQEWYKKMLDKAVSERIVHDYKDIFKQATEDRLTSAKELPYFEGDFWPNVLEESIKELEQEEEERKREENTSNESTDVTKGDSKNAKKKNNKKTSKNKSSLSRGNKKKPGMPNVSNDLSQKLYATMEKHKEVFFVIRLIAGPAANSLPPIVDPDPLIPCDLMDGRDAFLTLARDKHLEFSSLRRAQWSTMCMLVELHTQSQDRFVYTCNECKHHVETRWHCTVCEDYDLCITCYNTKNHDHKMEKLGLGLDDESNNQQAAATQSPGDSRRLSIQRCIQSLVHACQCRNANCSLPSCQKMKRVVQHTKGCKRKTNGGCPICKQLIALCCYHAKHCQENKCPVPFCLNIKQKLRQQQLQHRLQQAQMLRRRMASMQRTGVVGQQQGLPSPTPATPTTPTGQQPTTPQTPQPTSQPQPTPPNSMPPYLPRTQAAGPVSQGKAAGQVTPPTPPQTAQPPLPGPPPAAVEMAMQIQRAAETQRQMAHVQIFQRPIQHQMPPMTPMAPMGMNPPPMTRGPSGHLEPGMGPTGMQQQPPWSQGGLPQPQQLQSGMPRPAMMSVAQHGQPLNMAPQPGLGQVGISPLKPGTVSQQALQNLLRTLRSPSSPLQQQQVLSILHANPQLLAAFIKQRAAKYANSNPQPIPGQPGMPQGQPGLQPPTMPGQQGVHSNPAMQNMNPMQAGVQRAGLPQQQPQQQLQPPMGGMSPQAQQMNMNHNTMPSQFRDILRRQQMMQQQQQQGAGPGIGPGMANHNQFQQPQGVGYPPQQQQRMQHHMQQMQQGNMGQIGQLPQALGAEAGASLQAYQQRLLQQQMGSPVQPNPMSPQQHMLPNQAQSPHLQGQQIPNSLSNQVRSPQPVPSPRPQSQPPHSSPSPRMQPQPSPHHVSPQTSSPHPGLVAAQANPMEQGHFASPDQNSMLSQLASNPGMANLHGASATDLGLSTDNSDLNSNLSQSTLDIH
Target sequence in this assay (Q96SW2 whole entry partner): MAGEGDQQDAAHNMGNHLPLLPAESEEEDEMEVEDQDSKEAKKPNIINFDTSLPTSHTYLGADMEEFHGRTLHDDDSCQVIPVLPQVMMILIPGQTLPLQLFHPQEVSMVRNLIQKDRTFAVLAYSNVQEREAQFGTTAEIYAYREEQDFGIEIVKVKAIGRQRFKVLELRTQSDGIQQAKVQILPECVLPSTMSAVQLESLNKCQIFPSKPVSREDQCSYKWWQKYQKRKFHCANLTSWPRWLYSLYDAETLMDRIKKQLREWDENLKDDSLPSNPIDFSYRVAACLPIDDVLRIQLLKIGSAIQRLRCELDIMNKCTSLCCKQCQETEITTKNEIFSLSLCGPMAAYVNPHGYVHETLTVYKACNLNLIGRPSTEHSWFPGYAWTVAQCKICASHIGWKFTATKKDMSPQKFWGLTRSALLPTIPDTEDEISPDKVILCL

[2] = target: T1, Protein cereblon/Histone acetyltransferase p300; experiment: PROTAC activity at CRBN/p300 in human SK-HEP1 cells assessed as induction of p300 protein degradation incubated for 24 hrs by immunoblotting analysis; assay type: cell-based
[3] = target: T1, Protein cereblon/Histone acetyltransferase p300; experiment: PROTAC activity at CRBN/p300 in human SK-HEP1 cells assessed as induction of p300 protein degradation by measuring residual activity at 250 nM incubated for 24 hrs by immunoblotting analysis (reference value: 100%); assay type: cell-based
Target sequence in this assay (Q09472 2-2414 limits assumed): as the sequence (Q09472 2-2414 limits assumed) above
Target sequence in this assay (Q96SW2 whole entry partner): as the sequence (Q96SW2 whole entry partner) above

[4] = target: T1, Protein cereblon/Histone acetyltransferase p300; experiment: PROTAC activity at CRBN/p300 in human SK-HEP1 cells assessed as induction of p300 protein degradation by measuring residual activity at 1 uM incubated for 0.5 hrs by immunoblotting analysis (reference value: 100%); assay type: cell-based
Target sequence in this assay (Q09472 2-2414 limits assumed): as the sequence (Q09472 2-2414 limits assumed) above
Target sequence in this assay (Q96SW2 whole entry partner): as the sequence (Q96SW2 whole entry partner) above

[5] = target: T1, Protein cereblon/Histone acetyltransferase p300; experiment: PROTAC activity at CRBN/p300 in human SK-HEP1 cells assessed as induction of p300 protein degradation by measuring residual activity at 1 uM incubated for 1 hrs by immunoblotting analysis (reference value: 100%); assay type: cell-based
Target sequence in this assay (Q09472 2-2414 limits assumed): as the sequence (Q09472 2-2414 limits assumed) above
Target sequence in this assay (Q96SW2 whole entry partner): as the sequence (Q96SW2 whole entry partner) above

[6] = target: T1, Protein cereblon/Histone acetyltransferase p300; experiment: PROTAC activity at CRBN/p300 in human SK-HEP1 cells assessed as induction of p300 protein degradation by measuring residual activity at 2 uM incubated for 24 hrs by immunoblotting analysis (reference value: 100%); assay type: cell-based
Target sequence in this assay (Q09472 2-2414 limits assumed): as the sequence (Q09472 2-2414 limits assumed) above
Target sequence in this assay (Q96SW2 whole entry partner): as the sequence (Q96SW2 whole entry partner) above

[7] = target: T2, Protein cereblon/CREB-binding protein (Homo sapiens) (UniProt Q92793+Q96SW2); experiment: PROTAC activity at CRBN/CBP in human SK-HEP1 cells assessed as induction of […] protein degradation by measuring residual activity at 2 uM incubated for 24 hrs by immunoblotting analysis (reference value: 100%); assay type: cell-based
SK-HEP1 [8] = experiment: Antiproliferative activity against human SK-HEP1 cells assessed as inhibition of cell growth incubated for 5 days by CCK-8 assay; assay type: functional, cell-based; details: SK-HEP1, 120 h
SK-HEP1 [9] = experiment: Inhibition of colony formation in human SK-HEP1 cells incubated for 14 days with compound containing media replacement for every 3 days by crystal violet staining based assay; assay type: functional, cell-based; details: dose 0.5-2 µM, time 14.0 day
SK-HEP1 [10] = experiment: Induction of apoptosis in human SK-HEP1 cells incubated for 72 hrs by Annexin V-FITC/PI staining based flow cytometry analysis; assay type: functional, cell-based; details: dose 0.5-2 µM
SK-HEP1 [11] = experiment: Induction of cell cycle arrest at G2/M phase in human SK-HEP1 cells assessed as SKP2 protein level at 0.5 uM incubated for 24 hrs by immunoblotting analysis (reference value: 100%); assay type: functional
[12] = target: T2, Protein cereblon/CREB-binding protein (Homo sapiens); experiment: In vivo PROTAC activity at CRBN/CBP in nude mouse xenografted with human SK-HEP1 cells assessed as reduction in CBP protein level in tumor at 50 mg/kg, ip measured after 24 hrs by immunoblotting analysis; assay type: functional, organism-based

With `Cc1noc(C)c1-c1ccc2c(c1)nc([C@@H]1CCCC(=O)N1c1ccc(F)c(F)c1)n2C1CCN(C2CN(c3ccc4c(c3)C(=O)N(C3CCC(=O)NC3=O)C4=O)C2)CC1` (stereo partly drawn) the Activity [1] was 27%, the Activity [2] was “Dose-Dependent Effect” and the DC50 [2] was 93 nM. For the same compound, the Activity [3] was 38%, the Activity [4] was 100% and the Activity [5] was 78%. The Activity [6] was 62%, the Activity [7] was 89% and the IC50 (SK-HEP1 [8]) was 733 nM. The inhibition (SK-HEP1 [9]) was “Dose-Dependent Effect”, the Activity (SK-HEP1 [10]) was “Dose-Dependent Effect” and the Activity (SK-HEP1 [11]) was 117%. For the same compound, the Activity [12] was “Active”.
